Experimental findings from patent publication US20250136576A1, “Heterocyclic Compounds and Uses Thereof” (ACEA Therapeutics, Inc., priority 2021, published 2025) are described below.

One may read the IC50 as the point on the concentration scale where inhibition reaches its midpoint.

The test concerns KM12-luc cells. Nature of the test: Cell proliferation and growth inhibition assay (CCK-8) in KM12-luc. The conditions noted are these: KM12-luc cells, treated with test compounds for 72 hrs, CCK-8 viability, read-out: NTRK IC50 in KM12-luc. It is filed as cell-based. An outline of the steps:
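IC50 values were fitted by sigmoidal dose-response non-linear regression of CCK-8 OD450 absorbance after 1-4 hrs with reagent. Culture media were IMDM for MV-4-11, RPMI 1640 for H1975 and DMEM for KM12-luc, each with 10% FBS at 37 °C, 5% CO2.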

Read-outs that look alike come from different tables or passages of the source. Where only a bound is given, the exact number is not on record here.

Take `COc1cccc2c(-c3nc(Nc4ccc5c(c4)nc(C)n5CCN(C)C)ncc3C(F)(F)F)c[nH]c12` [Compound 380, 1-(2-(dimethylamino)ethyl)-N-(4-(7-methoxy-1H-indol-3-yl)-5-(trifluoromethyl)pyrimidin-2-yl)-2-methyl-1H-benzo[d]imidazol-5-amine]: the IC50 (KM12-Luc, 72 h) is 0.0505 µM.

For `COc1cccc2c(-c3nc(Nc4ccc(N(C)CCN(C)C)c(N)c4)ncc3C(F)(F)F)cn(C)c12` [Compound 385, N^1-(2-(dimethylamino)ethyl)-N^4-(4-(7-methoxy-1-methyl-1H-indol-3-yl)-5-(trifluoromethyl)pyrimidin-2-yl)-N^1-methylbenzene-1,2,4-triamine], the IC50 (KM12-Luc, 72 h) amounted to 0.0453 µM. On the same count and under the same terms, as for `COc1cccc2c(-c3nc(Nc4ccc(N(CCN(C)C)C(C)=O)c(NC(C)=O)c4)ncc3C(F)(F)F)cn(C)c12` [Compound 386, N-(2-acetamido-4-((4-(7-methoxy-1-methyl-1H-indol-3-yl)-5-(trifluoromethyl)pyrimidin-2-yl)amino)phenyl)-N-(2-(dimethylamino)ethyl)acetamide], the figure is 0.0439 µM; as for `COc1cccc2c(-c3nc(Nc4ccc5c(c4)nc(C)n5CCN(C)C)ncc3C(F)(F)F)cn(C)c12` [Compound 387, 1-(2-(dimethylamino)ethyl)-N-(4-(7-methoxy-1-methyl-1H-indol-3-yl)-5-(trifluoromethyl)pyrimidin-2-yl)-2-methyl-1H-benzo[d]imidazol-5-amine], 0.114 µM. Turning to `COc1cccc2c(-c3nc(Nc4ccc(OCCN(C)C)c(NC(C)=O)c4)ncc3C(F)(F)F)cn(C)c12` [Compound 388, N-(2-(2-(dimethylamino)ethoxy)-5-((4-(7-methoxy-1-methyl-1H-indol-3-yl)-5-(trifluoromethyl)pyrimidin-2-yl)amino)phenyl)acetamide], the IC50 (KM12-Luc, 72 h) turned out to be 0.0448 µM. Same read-out and setting: next, `CCn1cc(-c2nc(Nc3ccc(N(C)CCN(C)C)c(NC(C)=O)c3)ncc2C(F)(F)F)c2cc(F)ccc21` [Compound 391, N-(2-((2-(dimethylamino)ethyl)(methyl)amino)-5-((4-(1-ethyl-5-fluoro-1H-indol-3-yl)-5-(trifluoromethyl)pyrimidin-2-yl)amino)phenyl)acetamide]: 0.05 µM; `CC(=O)Nc1cc(Nc2ncc(Cl)c(-c3c[nH]c4ccccc34)n2)ccc1NC(=O)CN(C)C` [Compound 393, N-(2-acetamido-4-((5-chloro-4-(1H-indol-3-yl)pyrimidin-2-yl)amino)phenyl)-2-(dimethylamino)acetamide]: 0.0231 µM. With `CC(=O)Nc1cc(Nc2ncc(Cl)c(-c3c[nH]c4ccccc34)n2)ccc1NC(=O)CCN(C)C` [Compound 394a, N-(2-acetamido-4-((5-chloro-4-(1H-indol-3-yl)pyrimidin-2-yl)amino)phenyl)-3-(dimethylamino)propanamide], the IC50 (KM12-Luc, 72 h) was determined as 0.0291 µM. `Cc1nc2ccc(Nc3ncc(Cl)c(-c4c[nH]c5ccccc45)n3)cc2[nH]1` [Compound 394b, N-(5-chloro-4-(1H-indol-3-yl)pyrimidin-2-yl)-2-methyl-1H-benzo[d]imidazol-6-amine]: the concentration for half-maximal inhibition (IC50) (KM12-Luc, 72 h) was found to be 0.131 µM. On the same count and under the same terms, next, `CC(=O)Nc1cc(Nc2ncc(Cl)c(-c3cn(C)c4ccccc34)n2)ccc1N(C)CCN(C)C` [Compound 395, N-(5-((5-chloro-4-(1-methyl-1H-indol-3-yl)pyrimidin-2-yl)amino)-2-((2-(dimethylamino)ethyl)(methyl)amino)phenyl)acetamide]: 0.0773 µM; `CC(=O)Nc1cc(Nc2ncc(Cl)c(-c3cn(C)c4ccccc34)n2)cc(F)c1N(C)CCN(C)C` [Compound 396, N-(5-((5-chloro-4-(1-methyl-1H-indol-3-yl)pyrimidin-2-yl)amino)-2-((2-(dimethylamino)ethyl)(methyl)amino)-3-fluorophenyl)acetamide]: 0.0803 µM; `CCN(CCN(C)C)c1ccc(Nc2ncc(Cl)c(-c3cn(C)c4ccccc34)n2)cc1NC(C)=O` [Compound 397, N-(5-((5-chloro-4-(1-methyl-1H-indol-3-yl)pyrimidin-2-yl)amino)-2-((2-(dimethylamino)ethyl)(ethyl)amino)phenyl)acetamide]: 0.18 µM. Still for that read-out and setting: as for `CCN(CCN(C)C)c1c(F)cc(Nc2ncc(Cl)c(-c3cn(C)c4ccccc34)n2)cc1NC(C)=O` [Compound 398, N-(5-((5-chloro-4-(1-methyl-1H-indol-3-yl)pyrimidin-2-yl)amino)-2-((2-(dimethylamino)ethyl)(ethyl)amino)-3-fluorophenyl)acetamide], the figure is 0.196 µM; as for `Cc1nc2cc(Nc3ncc(Cl)c(-c4cn(C)c5ccccc45)n3)ccc2n1CCN(C)C` [Compound 400b, N-(5-chloro-4-(1-methyl-1H-indol-3-yl)pyrimidin-2-yl)-1-(2-(dimethylamino)ethyl)-2-methyl-1H-benzo[d]imidazol-5-amine], 0.0715 µM. The same measure, in the same setting: as for `CC(=O)Nc1cc(Nc2ncc(Cl)c(-c3cn(C)c4ccccc34)n2)cc(F)c1N1CCC(N(C)C)C1` (centres unmarked) [Compound 401, N-(5-((5-chloro-4-(1-methyl-1H-indol-3-yl)pyrimidin-2-yl)amino)-2-(3-(dimethylamino)pyrrolidin-1-yl)-3-fluorophenyl)acetamide], the figure is 0.0495 µM; as for `CC(=O)Nc1cc(Nc2ncc(Cl)c(-c3cn(C)c4ccccc34)n2)ccc1N(C)C(=O)CN(C)C` [Compound 403, N-(2-acetamido-4-((5-chloro-4-(1-methyl-1H-indol-3-yl)pyrimidin-2-yl)amino)phenyl)-2-(dimethylamino)-N-methylacetamide], 0.0465 µM.

Regarding `CC(=O)Nc1cc(Nc2ncc(Cl)c(-c3cn(C)c4ccccc34)n2)ccc1N(C)C(=O)CCN(C)C` [Compound 404, N-(2-acetamido-4-((5-chloro-4-(1-methyl-1H-indol-3-yl)pyrimidin-2-yl)amino)phenyl)-3-(dimethylamino)-N-methylpropanamide], the IC50 (KM12-Luc, 72 h) came out at 0.0265 µM. Regarding `CCN(C(=O)CN(C)C)c1ccc(Nc2ncc(Cl)c(-c3cn(C)c4ccccc34)n2)cc1NC(C)=O` [Compound 405, N-(2-acetamido-4-((5-chloro-4-(1-methyl-1H-indol-3-yl)pyrimidin-2-yl)amino)phenyl)-2-(dimethylamino)-N-ethylacetamide], the IC50 (KM12-Luc, 72 h) was over 1 µM.

For `CCN(C(=O)CCN(C)C)c1ccc(Nc2ncc(Cl)c(-c3cn(C)c4ccccc34)n2)cc1NC(C)=O` [Compound 406, N-(2-acetamido-4-((5-chloro-4-(1-methyl-1H-indol-3-yl)pyrimidin-2-yl)amino)phenyl)-3-(dimethylamino)-N-ethylpropanamid], the IC50 (KM12-Luc, 72 h) amounted to 0.0601 µM.

For `CC(=O)Nc1cc(Nc2ncc(Cl)c(-c3cn(C)c4ccccc34)n2)ccc1NC(=O)CN(C)C` [Compound 407, N-(2-acetamido-4-((5-chloro-4-(1-methyl-1H-indol-3-yl)pyrimidin-2-yl)amino)phenyl)-2-(dimethylamino)acetamide], the IC50 (KM12-Luc, 72 h) is 0.0444 µM. Same read-out and setting: as for `CC(=O)Nc1cc(Nc2ncc(Cl)c(-c3cn(C)c4ccccc34)n2)ccc1NC(=O)CCN(C)C` [Compound 408, N-(2-acetamido-4-((5-chloro-4-(1-methyl-1H-indol-3-yl)pyrimidin-2-yl)amino)phenyl)-3-(dimethylamino)propanamide], the figure is 0.0197 µM; as for `CN(C)CCN(C)c1ccc(Nc2ncc(Cl)c(-c3c[nH]c4c(F)cccc34)n2)cc1N` [Compound 411, N^4-(5-chloro-4-(7-fluoro-1H-indol-3-yl)pyrimidin-2-yl)-N^1-(2-(dimethylamino)ethyl)-N^1-methylbenzene-1,2,4-triamine], 0.0128 µM. Still for that read-out and setting: as for `CN(C)CCN(C)c1ccc(Nc2ncc(Cl)c(-c3cn(C)c4c(F)cccc34)n2)cc1N` [Compound 417, N^4-(5-chloro-4-(7-fluoro-1-methyl-1H-indol-3-yl)pyrimidin-2-yl)-N^1-(2-(dimethylamino)ethyl)-N^1-methylbenzene-1,2,4-triamine], the figure is 0.0942 µM; as for `CC(=O)Nc1cc(Nc2ncc(Cl)c(-c3cn(C)c4c(F)cccc34)n2)ccc1N(C)CCN(C)C` [Compound 418, N-(5-((5-chloro-4-(7-fluoro-1-methyl-1H-indol-3-yl)pyrimidin-2-yl)amino)-2-((2-(dimethylamino)ethyl)(methyl)amino)phenyl)acetamide], 0.0792 µM; as for `Cc1cccc2c(-c3nc(Nc4ccc(N(C)CCN(C)C)c(N)c4)ncc3Cl)cn(C)c12` [Compound 428, N^4-(5-chloro-4-(1,7-dimethyl-1H-indol-3-yl)pyrimidin-2-yl)-N^1-(2-(dimethylamino)ethyl)-N^1-methylbenzene-1,2,4-triamine], 0.0464 µM. On the same count and under the same terms, next, `CC(=O)Nc1cc(Nc2ncc(Cl)c(-c3cn(C)c4c(C)cccc34)n2)ccc1N(C)CCN(C)C` [Compound 429, N-(5-((5-chloro-4-(1,7-dimethyl-1H-indol-3-yl)pyrimidin-2-yl)amino)-2-((2-(dimethylamino)ethyl)(methyl)amino)phenyl)acetamide]: 0.475 µM; `COc1cccc2c(-c3nc(Nc4ccc(N(C)CCN(C)C)c(NC(C)=O)c4)ncc3Cl)cn(C)c12` [Compound 434, N-(5-(5-chloro-4-(7-methoxy-1-methyl-1H-indol-3-yl)pyrimidin-2-ylamino)-2-((2-(dimethylamino)ethyl)(methyl)amino)phenyl)acetamide]: 0.0971 µM. In the case of `COc1cccc2c(-c3nc(Nc4ccc(N(C)CCN(C)C)c(N)c4)ncc3Cl)cn(C)c12` [Compound 437, N^4-(5-chloro-4-(7-methoxy-1-methyl-H-indol-3-yl)pyrimidin-2-yl)-N^1-(2-(dimethylamino)ethyl)-N^1-methylbenzene-1,2,4-triamine], under “KM12-Luc, 72 h”, the IC50 stood at 0.109 µM. In the case of `CC(=O)Nc1cc(Nc2ncc(Cl)c(-c3c[nH]c4ccccc34)n2)ccc1N(C)CCN(C)C` [Compound 440], the IC50 is 0.007 µM.
